Experimental data: US9492471B2, “Methods of treating a disease or disorder associated with Bruton'S Tyrosine Kinase” (Celgene Avilomics Research, Inc., priority 2013, dated 2016)
Like-named read-outs stand apart in the source and are kept apart here.

How the values were obtained:
Experiment in all cases: HotSpot kinase profiling
Format in all cases: biochemical
[1] = target: T1, CDC7/DBF4 (Homo sapiens, UniProt O00311)
T1 construct: purchased Reaction Biology Corp
Outline: (§1)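 Percent inhibition, averaged when run more than once and referenced to a DMSO negative control, came from a radioactive filter-binding readout on P81 paper. Reactions of kinase with freshly made substrate and cofactors ran for 2 h at room temperature.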

[2] = target: T2, PDK1/PDPK1 (Homo sapiens, UniProt O15530)
T2 construct: purchased Reaction Biology Corp
T2 sequence (O15530 1-556): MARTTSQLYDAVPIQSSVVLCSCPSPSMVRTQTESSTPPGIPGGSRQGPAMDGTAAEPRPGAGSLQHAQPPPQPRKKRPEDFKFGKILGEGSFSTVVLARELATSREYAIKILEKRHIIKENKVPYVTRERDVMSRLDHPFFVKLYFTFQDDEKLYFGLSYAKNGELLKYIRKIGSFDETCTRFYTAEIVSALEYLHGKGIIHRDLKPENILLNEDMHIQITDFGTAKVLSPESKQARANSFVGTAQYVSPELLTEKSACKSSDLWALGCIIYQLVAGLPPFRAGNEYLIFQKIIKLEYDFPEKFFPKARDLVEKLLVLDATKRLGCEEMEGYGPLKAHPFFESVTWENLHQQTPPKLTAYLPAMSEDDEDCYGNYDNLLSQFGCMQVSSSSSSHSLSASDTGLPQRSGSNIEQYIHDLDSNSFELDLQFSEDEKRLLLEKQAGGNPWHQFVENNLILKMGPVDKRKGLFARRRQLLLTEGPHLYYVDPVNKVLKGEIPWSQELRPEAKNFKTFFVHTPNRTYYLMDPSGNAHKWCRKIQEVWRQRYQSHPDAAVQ
Outline: as §1

[3] = target: T3, STK39/STLK3 (Homo sapiens, UniProt Q9UEW8)
T3 construct: purchased Reaction Biology Corp
Outline: as §1

[4] = target: T4, DMPK2 (Homo sapiens, UniProt Q6DT37)
T4 construct: purchased Reaction Biology Corp
Outline: as §1

[5] = target: T5, CHK1 (Homo sapiens, UniProt O14757)
T5 construct: purchased Reaction Biology Corp
T5 sequence (O14757 1-476): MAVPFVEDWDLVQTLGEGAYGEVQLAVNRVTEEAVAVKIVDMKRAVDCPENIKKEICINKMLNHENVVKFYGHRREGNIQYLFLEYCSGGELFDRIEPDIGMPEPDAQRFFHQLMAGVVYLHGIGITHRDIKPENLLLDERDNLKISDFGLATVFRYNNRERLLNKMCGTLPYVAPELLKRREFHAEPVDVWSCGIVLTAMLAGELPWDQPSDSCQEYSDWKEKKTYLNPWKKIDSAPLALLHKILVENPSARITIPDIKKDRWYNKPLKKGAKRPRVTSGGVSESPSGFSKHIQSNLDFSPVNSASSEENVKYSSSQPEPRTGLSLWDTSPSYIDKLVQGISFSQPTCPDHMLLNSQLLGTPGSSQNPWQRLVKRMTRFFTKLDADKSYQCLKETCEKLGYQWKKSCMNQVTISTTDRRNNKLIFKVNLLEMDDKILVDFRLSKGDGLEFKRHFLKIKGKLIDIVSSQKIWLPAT
Outline: as §1

[6] = target: T6, TTBK1 (Homo sapiens, UniProt Q5TCY1)
T6 construct: purchased Reaction Biology Corp
Outline: as §1

[7] = target: T7, TNK1 (Homo sapiens, UniProt Q13470)
T7 construct: purchased Reaction Biology Corp
T7 sequence (Q13470 1-666): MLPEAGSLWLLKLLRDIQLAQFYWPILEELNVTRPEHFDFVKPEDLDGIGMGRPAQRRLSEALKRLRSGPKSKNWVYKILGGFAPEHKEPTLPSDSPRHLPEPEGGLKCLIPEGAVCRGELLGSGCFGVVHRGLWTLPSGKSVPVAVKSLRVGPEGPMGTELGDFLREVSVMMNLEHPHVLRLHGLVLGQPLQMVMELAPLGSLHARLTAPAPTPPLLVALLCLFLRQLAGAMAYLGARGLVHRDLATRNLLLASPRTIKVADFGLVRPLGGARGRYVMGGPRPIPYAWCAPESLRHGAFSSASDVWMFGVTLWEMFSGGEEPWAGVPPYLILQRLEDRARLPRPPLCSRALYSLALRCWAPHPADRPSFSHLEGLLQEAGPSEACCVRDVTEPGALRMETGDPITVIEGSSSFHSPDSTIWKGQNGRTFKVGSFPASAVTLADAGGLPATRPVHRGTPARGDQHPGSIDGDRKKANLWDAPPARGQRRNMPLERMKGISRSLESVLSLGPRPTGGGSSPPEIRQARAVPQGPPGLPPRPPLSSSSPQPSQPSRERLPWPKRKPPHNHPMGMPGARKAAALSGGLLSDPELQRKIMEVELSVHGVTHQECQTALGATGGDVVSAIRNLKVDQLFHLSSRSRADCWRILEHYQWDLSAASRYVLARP
Outline: as §1

[8] = target: T8, CDK1/cyclin A (Homo sapiens, UniProt P06493)
T8 construct: purchased Reaction Biology Corp
Outline: as §1

[9] = target: T9, CDK4/cyclin D3 (Homo sapiens, UniProt P11802)
T9 construct: purchased Reaction Biology Corp
Outline: as §1

[10] = read-out: % Enzyme Activity (relative to DMSO controls) Run 1
[11] = read-out: % Enzyme Activity (relative to DMSO controls) Run 2

T9 sequence (P11802 whole entry): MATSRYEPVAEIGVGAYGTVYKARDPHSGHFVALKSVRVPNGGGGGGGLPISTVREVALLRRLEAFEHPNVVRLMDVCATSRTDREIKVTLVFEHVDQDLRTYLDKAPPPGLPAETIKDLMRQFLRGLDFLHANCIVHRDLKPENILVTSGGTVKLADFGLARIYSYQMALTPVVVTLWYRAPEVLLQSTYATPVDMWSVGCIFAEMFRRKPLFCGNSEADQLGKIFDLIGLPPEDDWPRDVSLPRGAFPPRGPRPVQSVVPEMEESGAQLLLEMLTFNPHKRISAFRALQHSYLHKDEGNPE
T9 sequence (P30281 whole entry partner): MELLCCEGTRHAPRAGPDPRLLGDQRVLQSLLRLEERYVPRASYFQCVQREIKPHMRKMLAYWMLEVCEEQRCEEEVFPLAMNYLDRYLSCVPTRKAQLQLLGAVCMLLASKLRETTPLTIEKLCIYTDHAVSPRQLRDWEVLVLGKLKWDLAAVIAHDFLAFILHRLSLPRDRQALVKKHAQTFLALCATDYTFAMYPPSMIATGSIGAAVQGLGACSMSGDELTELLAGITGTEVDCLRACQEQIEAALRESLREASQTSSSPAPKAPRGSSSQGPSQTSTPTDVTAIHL
T6 sequence (Q5TCY1 whole entry): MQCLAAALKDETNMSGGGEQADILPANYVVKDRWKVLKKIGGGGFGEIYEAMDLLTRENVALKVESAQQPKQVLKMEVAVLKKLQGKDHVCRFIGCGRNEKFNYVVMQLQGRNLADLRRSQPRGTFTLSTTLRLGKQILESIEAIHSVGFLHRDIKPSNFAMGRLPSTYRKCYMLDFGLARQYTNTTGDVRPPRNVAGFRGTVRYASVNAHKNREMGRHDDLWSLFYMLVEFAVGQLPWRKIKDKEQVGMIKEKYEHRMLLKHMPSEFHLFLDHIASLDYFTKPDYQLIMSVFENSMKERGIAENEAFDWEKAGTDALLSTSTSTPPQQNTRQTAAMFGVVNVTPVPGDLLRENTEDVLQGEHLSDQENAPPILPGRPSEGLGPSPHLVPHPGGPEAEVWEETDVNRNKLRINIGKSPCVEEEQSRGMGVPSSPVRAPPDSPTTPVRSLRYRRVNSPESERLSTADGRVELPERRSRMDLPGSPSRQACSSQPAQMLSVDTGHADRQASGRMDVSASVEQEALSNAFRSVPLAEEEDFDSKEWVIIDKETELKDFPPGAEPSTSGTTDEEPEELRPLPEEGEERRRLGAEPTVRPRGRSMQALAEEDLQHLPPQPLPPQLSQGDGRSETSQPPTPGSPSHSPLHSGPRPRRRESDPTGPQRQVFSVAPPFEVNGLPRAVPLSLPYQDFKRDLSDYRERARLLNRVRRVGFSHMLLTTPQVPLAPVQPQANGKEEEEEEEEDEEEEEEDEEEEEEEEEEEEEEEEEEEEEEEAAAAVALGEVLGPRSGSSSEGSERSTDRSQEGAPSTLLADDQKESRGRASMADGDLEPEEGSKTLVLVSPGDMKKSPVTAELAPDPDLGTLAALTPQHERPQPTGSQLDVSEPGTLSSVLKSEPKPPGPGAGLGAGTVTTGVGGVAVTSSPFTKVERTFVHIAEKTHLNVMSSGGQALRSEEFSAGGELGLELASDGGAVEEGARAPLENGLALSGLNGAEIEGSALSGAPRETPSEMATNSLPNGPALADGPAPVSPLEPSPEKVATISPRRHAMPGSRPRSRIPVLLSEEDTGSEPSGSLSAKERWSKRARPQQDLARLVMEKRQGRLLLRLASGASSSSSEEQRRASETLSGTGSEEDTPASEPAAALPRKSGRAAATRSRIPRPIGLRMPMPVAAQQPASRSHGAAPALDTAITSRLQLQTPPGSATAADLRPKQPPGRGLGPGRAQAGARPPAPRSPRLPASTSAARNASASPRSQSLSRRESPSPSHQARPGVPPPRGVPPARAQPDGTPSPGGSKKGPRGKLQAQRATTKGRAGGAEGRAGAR
T1 sequence (O00311 whole entry): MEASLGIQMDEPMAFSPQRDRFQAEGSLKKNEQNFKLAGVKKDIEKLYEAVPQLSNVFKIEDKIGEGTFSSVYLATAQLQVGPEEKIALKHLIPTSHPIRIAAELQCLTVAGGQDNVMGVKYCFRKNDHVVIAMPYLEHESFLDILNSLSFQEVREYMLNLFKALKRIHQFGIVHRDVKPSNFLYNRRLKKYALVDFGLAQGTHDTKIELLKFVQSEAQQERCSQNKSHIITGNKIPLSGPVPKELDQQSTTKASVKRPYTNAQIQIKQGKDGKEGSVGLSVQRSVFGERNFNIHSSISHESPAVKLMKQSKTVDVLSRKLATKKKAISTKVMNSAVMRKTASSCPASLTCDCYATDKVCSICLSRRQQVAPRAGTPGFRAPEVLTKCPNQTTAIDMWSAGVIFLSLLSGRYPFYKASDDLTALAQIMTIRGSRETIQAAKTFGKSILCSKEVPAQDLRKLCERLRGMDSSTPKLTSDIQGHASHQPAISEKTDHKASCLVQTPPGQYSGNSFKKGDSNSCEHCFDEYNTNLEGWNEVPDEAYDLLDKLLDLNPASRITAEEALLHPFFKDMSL
T1 sequence (Q9UBU7 whole entry partner): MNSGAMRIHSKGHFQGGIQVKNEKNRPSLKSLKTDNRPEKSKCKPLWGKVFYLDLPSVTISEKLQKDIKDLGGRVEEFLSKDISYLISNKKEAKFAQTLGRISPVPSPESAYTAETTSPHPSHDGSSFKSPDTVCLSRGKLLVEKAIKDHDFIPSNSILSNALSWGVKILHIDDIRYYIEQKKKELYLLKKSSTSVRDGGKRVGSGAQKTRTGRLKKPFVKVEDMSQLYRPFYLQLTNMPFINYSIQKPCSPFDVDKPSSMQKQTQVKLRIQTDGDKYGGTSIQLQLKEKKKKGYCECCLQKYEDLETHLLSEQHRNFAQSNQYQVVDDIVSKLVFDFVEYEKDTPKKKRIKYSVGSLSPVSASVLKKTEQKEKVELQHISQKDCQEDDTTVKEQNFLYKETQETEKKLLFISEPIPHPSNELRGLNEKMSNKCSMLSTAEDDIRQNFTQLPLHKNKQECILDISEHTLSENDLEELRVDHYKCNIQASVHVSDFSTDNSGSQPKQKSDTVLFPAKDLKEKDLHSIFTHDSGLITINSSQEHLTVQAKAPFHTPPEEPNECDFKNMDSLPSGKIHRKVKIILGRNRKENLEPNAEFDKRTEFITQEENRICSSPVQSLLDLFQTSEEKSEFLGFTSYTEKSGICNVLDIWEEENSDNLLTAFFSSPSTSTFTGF
T4 sequence (Q6DT37 whole entry): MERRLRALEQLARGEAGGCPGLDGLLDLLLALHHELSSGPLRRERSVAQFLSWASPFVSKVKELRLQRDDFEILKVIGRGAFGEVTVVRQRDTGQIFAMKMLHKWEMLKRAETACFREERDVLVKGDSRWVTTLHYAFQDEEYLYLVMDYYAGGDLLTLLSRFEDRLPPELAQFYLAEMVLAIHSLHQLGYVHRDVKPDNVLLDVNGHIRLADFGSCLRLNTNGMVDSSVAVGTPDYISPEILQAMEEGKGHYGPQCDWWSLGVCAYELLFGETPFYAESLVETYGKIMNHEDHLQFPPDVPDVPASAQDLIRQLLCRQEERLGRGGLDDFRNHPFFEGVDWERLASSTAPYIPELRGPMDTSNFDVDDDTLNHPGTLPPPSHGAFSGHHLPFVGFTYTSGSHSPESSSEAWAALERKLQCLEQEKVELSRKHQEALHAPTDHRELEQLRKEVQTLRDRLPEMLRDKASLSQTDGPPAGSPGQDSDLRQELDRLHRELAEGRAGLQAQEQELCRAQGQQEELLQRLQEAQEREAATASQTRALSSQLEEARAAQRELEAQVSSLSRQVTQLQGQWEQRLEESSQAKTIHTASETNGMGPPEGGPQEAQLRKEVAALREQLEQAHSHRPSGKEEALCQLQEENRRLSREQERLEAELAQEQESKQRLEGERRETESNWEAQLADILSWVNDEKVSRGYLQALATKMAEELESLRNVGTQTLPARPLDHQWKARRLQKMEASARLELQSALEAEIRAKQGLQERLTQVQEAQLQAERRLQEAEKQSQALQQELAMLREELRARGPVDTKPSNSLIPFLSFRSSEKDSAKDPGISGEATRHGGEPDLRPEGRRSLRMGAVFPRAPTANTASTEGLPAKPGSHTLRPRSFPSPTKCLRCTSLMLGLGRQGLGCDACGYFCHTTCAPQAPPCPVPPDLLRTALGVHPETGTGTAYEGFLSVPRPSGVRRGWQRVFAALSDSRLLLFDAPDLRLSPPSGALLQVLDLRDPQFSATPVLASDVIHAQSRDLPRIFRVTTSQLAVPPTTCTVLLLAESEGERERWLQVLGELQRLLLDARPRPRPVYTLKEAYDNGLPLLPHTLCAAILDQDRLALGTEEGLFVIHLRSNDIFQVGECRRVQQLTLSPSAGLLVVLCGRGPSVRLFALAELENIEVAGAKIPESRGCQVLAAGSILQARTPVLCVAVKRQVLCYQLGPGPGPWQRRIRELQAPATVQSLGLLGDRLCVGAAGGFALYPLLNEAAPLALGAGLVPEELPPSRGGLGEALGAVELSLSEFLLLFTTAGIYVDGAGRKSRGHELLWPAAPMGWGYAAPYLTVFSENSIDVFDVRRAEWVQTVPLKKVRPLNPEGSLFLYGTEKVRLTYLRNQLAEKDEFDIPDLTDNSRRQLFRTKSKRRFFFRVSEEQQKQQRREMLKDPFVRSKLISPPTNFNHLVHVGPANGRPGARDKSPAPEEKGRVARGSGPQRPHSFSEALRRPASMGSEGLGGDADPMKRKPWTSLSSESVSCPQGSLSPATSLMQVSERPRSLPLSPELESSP

## C=CC(=O)Nc1cccc(Nc2nc(Nc3ccc(OCCOC)c(F)c3)ncc2F)c1 [Compound 2]
[1]
  inhibition at 3 µM: -2.02%
[1]; [10]
  remaining activity at 3 µM: 100%
[1]; [11]
  remaining activity at 3 µM: 104%
[2]
  inhibition at 3 µM: -5.96%
[2]; [10]
  remaining activity at 3 µM: 107%
[2]; [11]
  remaining activity at 3 µM: 105%
[3]
  inhibition at 3 µM: 7.74%
[3]; [10]
  remaining activity at 3 µM: 91.6%
[3]; [11]
  remaining activity at 3 µM: 92.9%
[4]
  inhibition at 3 µM: 1.54%
[4]; [10]
  remaining activity at 3 µM: 97.4%
[4]; [11]
  remaining activity at 3 µM: 99.6%
[5]
  inhibition at 3 µM: 6.15%
[5]; [10]
  remaining activity at 3 µM: 93.1%
[5]; [11]
  remaining activity at 3 µM: 94.6%
[6]
  inhibition at 3 µM: -1.65%
[6]; [10]
  remaining activity at 3 µM: 101%
[6]; [11]
  remaining activity at 3 µM: 102%
[7]
  inhibition at 3 µM: 83.7%
[7]; [10]
  remaining activity at 3 µM: 15.9%
[7]; [11]
  remaining activity at 3 µM: 16.6%
[8]
  inhibition at 3 µM: -18%
[8]; [10]
  remaining activity at 3 µM: 112%
[8]; [11]
  remaining activity at 3 µM: 124%
[9]
  inhibition at 3 µM: 5.15%
[9]; [10]
  remaining activity at 3 µM: 95.5%
[9]; [11]
  remaining activity at 3 µM: 94.2%
